# From ChEMBL document CHEMBL6153057, “Novel Imidazotriazine Derivatives as IL-17 Modulators for Treating Inflammatory and Autoimmune Disorders” (ACS Med Chem Lett, 2025)
# Test: Antiinflammatory activity in human HDF cells assessed as inhibition of IL-17A/TNF-alpha-stimulated IL-6 release preincubated for 5 hrs followed by IL-17A/TNF-alpha stimulation and measured after 18 to 20 hrs by homogenous time-resolved FRET based assay
# Format: functional, cell-based
row,Compound,IC50 [nM]
1,[2H]C([2H])([2H])O[C@@H]1CCN(C(=O)[C@@H]2CCC(F)(F)CO2)[C@@H](c2cnn3cc([C@@H](NC(=O)c4ccnn4C)C4CCC(F)(F)CC4)nc3n2)C1,39.8
2,[2H]C([2H])([2H])O[C@@H]1CCN(C(=O)[C@@H]2CCC(F)(F)CO2)[C@H](c2cnn3cc([C@@H](NC(=O)c4ccnn4C)C4CCC(F)(F)CC4)nc3n2)C1,3.98
3,CO[C@@H]1CCN(C(=O)[C@@H]2CCC(F)(F)CO2)[C@H](c2cnn3cc([C@@H](NC(=O)c4ccnn4C)C4CCC(F)(F)CC4)nc3n2)C1,3.16
4,CO[C@@H]1CCN(C(=O)[C@@H]2CCC(F)(F)CO2)[C@@H](c2cnn3cc([C@@H](NC(=O)c4ccnn4C)C4CCC(F)(F)CC4)nc3n2)C1,39.8
